How the values were obtained:
Assay in all cases: Determination of the minimum inhibitory concentration (MIC value) in microtitre plates
P. aeruginosa = type: cell-based, Pseudomonas aeruginosa CIP A-22; conditions: optical density at 620 nm, 48 hours at 37° C., MIC = ≦20% growth; tested at 100; 10 and 1 ppm (approximate values); (2), (3), (4) at 120; 60; 30; 15; 7.5; 3.75 ppm
Experimental: (§1) Determination of the Minimum Inhibitory Concentration (MIC Value) in Microtitre Plates Nutrient Medium Casein/soybean flour/peptone bouillon for the preparation of preliminary cultures of the test bacteria and yeast. Mycological slant agar for the preliminary culture of moulds Examples of Test Microbes: Bacteria: Pseudomonas aeruginosa CIP A-22 Procedure: The test substances are pre-dissolved in dimethyl sulfoxide (DMSO) and tested in a series of dilutions of 1:2. Bacteria and yeast are cultured overnight in CASO bouillon; the mould is cultured on myco-logical slant agar and sponged off with 10 ml of 0.85% sodium chloride solution (+0.1% Triton X-100). All the test microbes are adjusted to a germ count of 1−5×10^6 KBE/ml using 0.85% sodium chloride solution. The test substances are pre-pipetted into microtitre plates in an amount of 8 μl per well. Pre-diluted microbe suspensions are diluted 1:100 in CASO bouillon (bacteria and yeast) or Sabouraud 2% glucose bouillon (mould) and added to the test substances in an amount of 192 μl per well. The test batches are incubated for 48 hours at 37° C. (bacteria and yeast) or for 5 days at 28° C. (mould). After incubation, the growth is determined by means of the clouding of the test batches (optical density) at 620 nm in a microplate reader. The concentration of substance at which (compared with the growth control) a marked inhibition of growth (≦20% growth) of the test microbes can be observed is given as the minimum inhibitory concentration (MIC value). One microtitre plate is used per test microbe and substance concentration. All substances are tested in duplicate.

A. niger = type: cell-based, Aspergillus niger ATCC 6275; conditions: optical density at 620 nm, 5 days at 28° C., MIC = ≦20% growth; tested at 100; 10 and 1 ppm (approximate values); (2), (3), (4) at 120; 60; 30; 15; 7.5; 3.75 ppm
Experimental: as §1, with “Mould: Aspergillus niger ATCC 6275” for “Bacteria: Pseudomonas aeruginosa CIP A-22”

C. albicans = type: cell-based, Candida albicans ATCC 10231; conditions: optical density at 620 nm, 48 hours at 37° C., MIC = ≦20% growth; tested at 100; 10 and 1 ppm (approximate values); (2), (3), (4) at 120; 60; 30; 15; 7.5; 3.75 ppm
Experimental: as §1, with “Yeast: Candida albicans ATCC 10231” for “Bacteria: Pseudomonas aeruginosa CIP A-22”

E. coli = type: cell-based, Escherichia coli NCTC 8196; conditions: optical density at 620 nm, 48 hours at 37° C., MIC = ≦20% growth; tested at 100; 10 and 1 ppm (approximate values); (2), (3), (4) at 120; 60; 30; 15; 7.5; 3.75 ppm
Experimental: as §1, with “Escherichia coli NCTC 8196” for “Pseudomonas aeruginosa CIP A-22”

S. aureus = type: cell-based; conditions: optical density at 620 nm, 48 hours at 37° C., MIC = ≦20% growth; tested at 100; 10 and 1 ppm (approximate values); (2), (3), (4) at 120; 60; 30; 15; 7.5; 3.75 ppm
Description: as §1, with “Staphylococcus hominis DMS 20328” for “Pseudomonas aeruginosa CIP A-22”

Oc1ccccc1/C=C/c1nc(-c2ccc(N3CCCC3)cc2)cs1 [Compound of formula (33)]
>100 ppm: MIC values in ppm P. aeruginosa (P. aeruginosa) | MIC values in ppm A. niger (A. niger) | MIC values in ppm C. albicans (C. albicans) | MIC values in ppm E. coli (E. coli) | MIC values in ppm S. aureus (S. aureus)

COc1cc(/C=C/c2nc(-c3ccc(N4CCCC4)cc3)cs2)cc(O)c1OC [Compound of formula (34)]
>100 ppm: MIC values in ppm P. aeruginosa (P. aeruginosa) | MIC values in ppm A. niger (A. niger) | MIC values in ppm C. albicans (C. albicans) | MIC values in ppm E. coli (E. coli) | MIC values in ppm S. aureus (S. aureus)

Cc1cc(/C=C/c2nc(-c3ccc(N4CCCC4)cc3)cs2)cc(C)c1O [Compound of formula (35)]
>100 ppm: MIC values in ppm P. aeruginosa (P. aeruginosa) | MIC values in ppm A. niger (A. niger) | MIC values in ppm C. albicans (C. albicans) | MIC values in ppm E. coli (E. coli) | MIC values in ppm S. aureus (S. aureus)

Cc1cccc(/C=C/c2nc(-c3ccc(N4CCCC4)cc3)cs2)c1O [Compound of formula (36)]
>100 ppm: MIC values in ppm P. aeruginosa (P. aeruginosa) | MIC values in ppm A. niger (A. niger) | MIC values in ppm C. albicans (C. albicans) | MIC values in ppm E. coli (E. coli) | MIC values in ppm S. aureus (S. aureus)

COc1cc(O)ccc1/C=C/c1nc(-c2ccc(N3CCCC3)cc2)cs1 [Compound of formula (38)]
>100 ppm: MIC values in ppm P. aeruginosa (P. aeruginosa) | MIC values in ppm A. niger (A. niger) | MIC values in ppm C. albicans (C. albicans) | MIC values in ppm E. coli (E. coli) | MIC values in ppm S. aureus (S. aureus)

CCc1csc(/C=C/c2ccc(O)cc2)n1 [Compound of formula (39)]
>100 ppm: MIC values in ppm P. aeruginosa (P. aeruginosa) | MIC values in ppm A. niger (A. niger) | MIC values in ppm C. albicans (C. albicans) | MIC values in ppm E. coli (E. coli) | MIC values in ppm S. aureus (S. aureus)

CCc1csc(/C=C/c2cccc(O)c2)n1 [Compound of formula (40)]
>100 ppm: MIC values in ppm P. aeruginosa (P. aeruginosa) | MIC values in ppm A. niger (A. niger) | MIC values in ppm C. albicans (C. albicans) | MIC values in ppm E. coli (E. coli) | MIC values in ppm S. aureus (S. aureus)

CCc1csc(/C=C/c2ccc(OC)c(O)c2)n1 [Compound of formula (41)]
>100 ppm: MIC values in ppm P. aeruginosa (P. aeruginosa) | MIC values in ppm A. niger (A. niger) | MIC values in ppm C. albicans (C. albicans) | MIC values in ppm E. coli (E. coli) | MIC values in ppm S. aureus (S. aureus)

CCOc1cc(/C=C/c2nc(CC)cs2)ccc1O [Compound of formula (42)]
>100 ppm: MIC values in ppm P. aeruginosa (P. aeruginosa) | MIC values in ppm A. niger (A. niger) | MIC values in ppm C. albicans (C. albicans) | MIC values in ppm E. coli (E. coli) | MIC values in ppm S. aureus (S. aureus)

CCc1csc(/C=C/c2ccc(O)c(OC)c2)n1 [Compound of formula (43)]
>100 ppm: MIC values in ppm P. aeruginosa (P. aeruginosa) | MIC values in ppm A. niger (A. niger) | MIC values in ppm C. albicans (C. albicans) | MIC values in ppm E. coli (E. coli) | MIC values in ppm S. aureus (S. aureus)

CCc1csc(/C=C/c2ccc(OC)cc2O)n1 [Compound of formula (44)]
>100 ppm: MIC values in ppm P. aeruginosa (P. aeruginosa) | MIC values in ppm A. niger (A. niger) | MIC values in ppm C. albicans (C. albicans) | MIC values in ppm E. coli (E. coli) | MIC values in ppm S. aureus (S. aureus)

CCc1csc(/C=C/c2ccccc2O)n1 [Compound of formula (45)]
>100 ppm: MIC values in ppm P. aeruginosa (P. aeruginosa) | MIC values in ppm A. niger (A. niger) | MIC values in ppm C. albicans (C. albicans) | MIC values in ppm E. coli (E. coli) | MIC values in ppm S. aureus (S. aureus)

CCc1csc(/C=C/c2cc(O)c(OC)c(OC)c2)n1 [Compound of formula (46)]
>100 ppm: MIC values in ppm P. aeruginosa (P. aeruginosa) | MIC values in ppm A. niger (A. niger) | MIC values in ppm C. albicans (C. albicans) | MIC values in ppm E. coli (E. coli) | MIC values in ppm S. aureus (S. aureus)

CCc1csc(/C=C/c2cc(C)c(O)c(C)c2)n1 [Compound of formula (47)]
>100 ppm: MIC values in ppm P. aeruginosa (P. aeruginosa) | MIC values in ppm A. niger (A. niger) | MIC values in ppm C. albicans (C. albicans) | MIC values in ppm E. coli (E. coli) | MIC values in ppm S. aureus (S. aureus)

CCc1csc(/C=C/c2cccc(C)c2O)n1 [Compound of formula (48)]
>100 ppm: MIC values in ppm P. aeruginosa (P. aeruginosa) | MIC values in ppm A. niger (A. niger) | MIC values in ppm C. albicans (C. albicans) | MIC values in ppm E. coli (E. coli) | MIC values in ppm S. aureus (S. aureus)

Reference: patent publication US6624182B1, “Hydroxyphenylvinylthiazoles” (Ciba Specialty Chemicals Corporation, priority 1999, dated 2003)
